In patent US6375974B1 (Mitsui Takeda Chemicals, Inc., priority 1998, dated 2002):

Assays:
[1] = test system: various gram negative bacteria; details: cited from earlier work
[2] = test system: various bacteria such as E. coli 0-157; details: at 1.0% and 1.5%; cited from earlier work
[3] = dissolution of fine grains in water by slow stirring; format: physicochemical; details: 15 g fine grains (80-mesh pass) in 10 l of water at 20° C., slowly stirred for 24 hours
Description: Because of the low dissolution rate, fumaric acid cannot be completely dissolved but remains as fine grains giving a slurry in these conventional methods. […] When such an aqueous fumaric acid solution is employed in sterilizing meats, the remaining fumaric acid grains sometimes damage the meat tissue.

gram negative bacteria = details: cited from earlier work
Escherichia coli O-157 = details: cited from earlier work
[4] = ethanol; cited from earlier work
[5] = cited from earlier work

O=C(O)/C=C/C(=O)O [fumaric acid]
bactericidal effect ([1]; gram negative bacteria (E. coli, salmonella, Shigella, etc.), short contact time): potent bactericidal effect | antibacterial effect ([1]; within a short time, compared with other organic acids): strong antibacterial effect | bactericidal effect compared with other organic acids [2]: exceeding those of other organic acids | dissolution of fine grains [3]: not completely dissolved | growth of gram negative bacteria (gram negative bacteria): inhibited the growth | bactericidal effect (Escherichia coli O-157): strong bactericidal effect

CCO [ethanol]
time after which a bactericidal effect was exerted [4]: 60 min

O=C([O-])/C=C/C(=O)O.[Na+] [monosodium fumarate]
concentration showing bactericidal effects ([5]; aqueous solution): 0.8% | bactericidal effects ([5]; concentration of 0.6% or less): did not show bactericidal effects
